Data taken from patent US7321027B2, “Small technetium-99m and rhenium labeled agents and methods for imaging tumors” (President and Fellows of Harvard College, priority 2000, dated 2008).
Each block holds one compound with its values, some of them ahead of it.

Tests used:
[1] = test system: B16/F0 murine melanoma cells; test: In-vitro tumor-cell uptake, melanoma cells; type: cell-based; settings: for % active: active part of in-vitro uptake, 37° C. vs 4° C.
Protocol: In-Vitro Tumor-Uptake Studies. Tumor-cell uptake studies in B16/F0 murine melanoma cells were performed with complexes Tc-(Compound A-D and H-M) at 37° C. and 4° C. Additionally, tumor-cell uptake of complex Tc-(Compound A) was investigated in another rapidly dividing MCF-7 human breast cancer cell line.
In-Vitro Cell Studies. Murine B16/F0 melanoma cells and human MCF-7 breast cancer cells were obtained from American Type Culture Collection, Manassas Va., (ATCC) and were grown in T-175 flasks in 14 mL Dulbecco's Modified Eagle Medium (D-MEM; Gibco, Life Technology, Gaithersburg, Md.) containing 4500 mg/L D-glucose, L-glutamine, and pyridoxine hydrochloride, 110 mg/L sodium pyruvate, 10% fetal bovine serum (FBS), 0.2% gentamicin and 0.5% penicillin-streptomycin solution. All cells were harvested from cell culture flasks by trypsinization with 1 mL trypsin-EDTA solution (0.25% trypsin, 1 mM EDTA×4 Na) (Gibco). After being washed with 12 mL Dulbecco's Phosphate-Buffered Saline (PBS) (Gibco), pH 7.2 (Ca^2+- and Mg^2+-free; g/L KCl, 0.20; KH2PO4, 0.20; NaCl, 8.00; Na2HPO4, 1.15), the cells were counted and resuspended in 8 mL S-MEM (Gibco) (Ca^2+ free, with reduced Mg^2+ content) and stored at 4° C. until use.
For in-vitro tumor-cell accumulation studies, 5×10^6 cells in polypropylene test tubes were incubated at 37° C. or 4° C., with intermittent agitation with 1-2 μCi (5 μL) ^99mTc-complex Tc-(Compound A-D) in a total volume of 350 μL S-MEM. At appropriate time intervals the tubes were vortexed and 8-μL samples were layered on 350 μL cold FBS in a 400-μL Eppendorf microcentrifuge tube. After centrifugation at 15,000 rpm for 2 min, the tubes were frozen in a dry ice-acetone bath. While still frozen, the bottom tip of the microcentrifuge tube containing the cell pellet was cut and placed in a counting tube. The remaining portion of the tube with the supernatant was placed in a separate counting tube. Both fractions were counted for radioactivity in a γ-counter (WALLAC, 1480 WIZARD 3″™). The amount of supernatant in the cell pellet was determined to be <1% in separate experiments. The percentage cell uptake of the ^99mTc-complex was calculated as: % uptake=[cpm(pellet)]/[cpm(pellet)+cpm(supernatant)]×100

B16/F0 murine melanoma = test: In-vivo tumor uptake and biodistribution; design: species or system C57B16 mice
Protocol: In-Vivo Tumor Uptake. To study the tumor uptake of ^99mTc-complexes, Tc-(Compound A-D and J-K), in vivo, biodistribution experiments at 1 h and 6 h after their administration were carried out in C57B16 mice with palpable B16 melanoma nodules. The biodistribution data including melanoma/nontumor (M/NT) ratios for selected organs are summarized in Table 4 and 5 as percentage injected dose per gram ([…]).
Animal Studies. All animal experiments were performed in compliance with the Principles of Laboratory Animal Care (NIH publication #85-23, revised 1985). Biodistribution studies and tumor-uptake measurements were performed in C57B16 mice (15 to 20 g) bearing the B16/F0 murine melanoma on the hind limb. See for example the studies described in, which are hereby incorporated by reference, Brandau, W.; Niehoff, T.; Pulawski, P.; Jonas, M.; Dutschka, K.; Sciuk, J.; Coenen, H. H.; Schober, O. Structure Distribution Relationship of Iodine-123-Iodobenzamides as Tracers for the Detection of Melanotic Melanoma. J. Nucl. Med. 1996, 37, 1865-1871; Mohanmmed, A.; Nicholl, C.; Titsch, U.; Eisenhut, M. Radiojodinated N-(Alkylaminoalkyl)-Substituted 4-Methoxy-, 4-Hydroxy-, and 4-Aminobenzamides: Biological Investigations for the Improvement of Melanoma-Imaging Agents. Nucl. Med. Biol. 1997, 24, 373-380; Titsch, U.; Mohammed, A.; Wagner, S.; Oberdorfer, F.; Eisenhut, M. Syntheses of N-(2-Diethylaminoethyl)benzamides Suitable for ^99mTc Complexation. J. Labelled Compd. Radiopharm. 1997, 40, 416-418; Dittmann, H.; Coenen, H. H.; Zölzer, F.; Dutschka, K.; Brandau, W.; Streffer, C. In Vitro Studies on the Cellular Uptake of Melanoma Imaging Aminoalkyl-iodobenzamide Derivatives (ABA). Nucl. Med. Biol. 1999, 26, 51-56; and Michelot, J. M.; Moreau, M. F. C.; Veyre, A. J.; Bonafous, J. F.; Bacin, F. J.; Madelmont, J. C.; Bussiere, F.; Souteyrand, P. A.; Mauclaire, L. P.; Chossat, F. M.; Papon, J. M.; Labarre, P. G.; Kauffmann, Ph.; Plagne, R. J. Phase II Scintigraphic Clinical Trial of Malignant Melanoma and Metastases with Iodine-123-N-(2-Diethylaminoethyl 4-Iodobenzamide). J. Nucl. Med. 1993, 34, 1260-1266. The tumor cells (B16/F0), obtained from ATCC, were washed with PBS and transplanted subcutaneously on the left hind flank by an inoculation of 0.5×10^6 cells (0.1 mL). Ten to 14 days later the animals developed palpable tumor nodules 3 to 5 mm in diameter. The biodistribution studies were carried out by tail-vein injection of 25 to 30 μCi (0.05 to 0.1 mL) of the ^99mTc-labeled complexes Tc-(Compound A-D, H, J, K or M). At the designated time after tail-vein administration, the animals were weighed and sacrificed. The organs and tumors were harvested and, when appropriate, blotted dry, weighed, and counted in a gamma counter along with technetium-99m standards of the injected dose. The results are expressed as % ID/g tissue (Table 4 and 5)

In-vivo M/Blood (B16/F0 murine melanoma; mouse, in vivo): 7.6 | In-vivo M/Lung (B16/F0 murine melanoma; mouse, in vivo): 2.1 | In-vivo M/Spleen (B16/F0 murine melanoma; mouse, in vivo): 4.0
SMILES: CCCCN(CCCC)CCN(CCSC(c1ccccc1)(c1ccccc1)c1ccccc1)CC(=O)NCCSC(c1ccccc1)(c1ccccc1)c1ccccc1 [Compound B, N-[(2-dibutylaminoethyl)-N-(2-(2-(S-(triphenylmethyl)thio)ethyl)amino)-acetyl]-S-(triphenylmethyl)-2-aminoethanethiol]
% Tumor uptake (In-vitro, 60 min) 4° C. [1]: 16 ± 1.3% | % Tumor uptake (In-vitro, 60 min) 37° C. [1]: 8 ± 1.9%

In-vivo M/Blood (B16/F0 murine melanoma; mouse, in vivo): 7.7 | In-vivo M/Lung (B16/F0 murine melanoma; mouse, in vivo): 2.4 | In-vivo M/Spleen (B16/F0 murine melanoma; mouse, in vivo): 3.0
SMILES: CCN(CC)CCCN(CCSC(c1ccccc1)(c1ccccc1)c1ccccc1)CC(=O)NCCSC(c1ccccc1)(c1ccccc1)c1ccccc1 [Compound C, N-[(3-diethylaminopropyl)-N-(2-(2-(S-(triphenylmethyl)thio)ethyl)amino)-acetyl]-S-(triphenylmethyl)-2-aminoethanethiol]
% Tumor uptake (In-vitro, 60 min) 4° C. [1]: 17 ± 1.5% | % Tumor uptake (In-vitro, 60 min) 37° C. [1]: 62 ± 0.8% | % active [1]: 73%

In-vivo M/Blood (B16/F0 murine melanoma; mouse, in vivo): 7.6 | In-vivo M/Lung (B16/F0 murine melanoma; mouse, in vivo): 5.4 | In-vivo M/Spleen (B16/F0 murine melanoma; mouse, in vivo): 4.2
SMILES: CCN(CC)CCN(CCSC(c1ccccc1)(c1ccccc1)c1ccccc1)CC(=O)NCCSC(c1ccccc1)(c1ccccc1)c1ccccc1 [Compound A, N-[(2-diethylaminoethyl)-N-(2-(2-(S-(triphenyl-methyl)thio)ethyl)amino)acetyl]-S-(triphenylmethyl)-2-aminoethane-thiol]
% Tumor uptake (In-vitro, 60 min) 4° C. [1]: 33 ± 2.4% | % Tumor uptake (In-vitro, 60 min) 37° C. [1]: 44 ± 1.6% | % active [1]: 25%

In-vivo M/Blood (B16/F0 murine melanoma; mouse, in vivo): 4.3 | In-vivo M/Lung (B16/F0 murine melanoma; mouse, in vivo): 1.5 | In-vivo M/Spleen (B16/F0 murine melanoma; mouse, in vivo): 1.4
SMILES: CCCCN(CCCC)CCCN(CCSC(c1ccccc1)(c1ccccc1)c1ccccc1)CC(=O)NCCSC(c1ccccc1)(c1ccccc1)c1ccccc1 [Compound D, N-[(3-dibutylaminopropyl)-N-(2-(2-(S-(triphenylmethyl)thio)ethyl)amino)-acetyl]-S-(triphenylmethyl)-2-aminoethanethiol]
% Tumor uptake (In-vitro, 60 min) 4° C. [1]: 56 ± 2.7% | % Tumor uptake (In-vitro, 60 min) 37° C. [1]: 68 ± 2.3% | % active [1]: 18%

SMILES: O=C1CN(CCN2CCCCC2)CC[S][99Tc]2(=[O])[S]CC[N]12 (stereo not shown) [^99mTc-Compound J]
biodistribution blood (B16/F0 murine melanoma; 1 h post-injection): 2.26 % ID/g | biodistribution brain (B16/F0 murine melanoma; 1 h post-injection): 0.52 % ID/g | biodistribution heart (B16/F0 murine melanoma; 1 h post-injection): 0.91 % ID/g | biodistribution kidney (B16/F0 murine melanoma; 1 h post-injection): 4.26 % ID/g | biodistribution liver (B16/F0 murine melanoma; 1 h post-injection): 14.9 % ID/g | biodistribution lung (B16/F0 murine melanoma; 1 h post-injection): 2.50 % ID/g | biodistribution melanoma (B16/F0 murine melanoma; 1 h post-injection): 5.26 % ID/g | biodistribution muscle (B16/F0 murine melanoma; 1 h post-injection): 0.42 % ID/g | biodistribution spleen (B16/F0 murine melanoma; 1 h post-injection): 3.28 % ID/g | mel/blood ratio (B16/F0 murine melanoma; 1 h post-injection): 2.3 | mel/liver ratio (B16/F0 murine melanoma; 1 h post-injection): <1 | mel/lung ratio (B16/F0 murine melanoma; 1 h post-injection): 2.1 | mel/spleen ratio (B16/F0 murine melanoma; 1 h post-injection): 1.6 | biodistribution blood (B16/F0 murine melanoma; 6 h post-injection): 0.20 % ID/g | biodistribution brain (B16/F0 murine melanoma; 6 h post-injection): 0.05 % ID/g | biodistribution heart (B16/F0 murine melanoma; 6 h post-injection): 0.26 % ID/g | biodistribution kidney (B16/F0 murine melanoma; 6 h post-injection): 2.31 % ID/g | biodistribution liver (B16/F0 murine melanoma; 6 h post-injection): 4.62 % ID/g | biodistribution lung (B16/F0 murine melanoma; 6 h post-injection): 0.31 % ID/g | biodistribution melanoma (B16/F0 murine melanoma; 6 h post-injection): 3.33 % ID/g | biodistribution muscle (B16/F0 murine melanoma; 6 h post-injection): 0.15 % ID/g | biodistribution spleen (B16/F0 murine melanoma; 6 h post-injection): 0.20 % ID/g | mel/blood ratio (B16/F0 murine melanoma; 6 h post-injection): 16.7 | mel/liver ratio (B16/F0 murine melanoma; 6 h post-injection): <1 | mel/lung ratio (B16/F0 murine melanoma; 6 h post-injection): 10.7 | mel/spleen ratio (B16/F0 murine melanoma; 6 h post-injection): 16.7

SMILES: CCN(CC)CCNC(=O)c1ccc(I)cc1 [IBZA, reference compound]
% Tumor uptake (In-vitro, 60 min) 4° C. [1]: 28 ± 1.4% | % Tumor uptake (In-vitro, 60 min) 37° C. [1]: 26 ± 1.4% | In-vivo Tumor uptake, Melanoma (B16/F0 murine melanoma; 60 min): 5.5 % I.D./g | In-vivo M/Blood (B16/F0 murine melanoma; melanoma/blood ratio, 60 min): 8 | In-vivo M/Lung (B16/F0 murine melanoma; melanoma/lung ratio, 60 min): <1 | In-vivo M/Spleen (B16/F0 murine melanoma; melanoma/spleen ratio, 60 min): 1
